# Patent publication US20180256673A1, “METHODS FOR TREATING FUNGAL INFECTIONS” (priority 2015, published 2018)
# Starred links: 1 amine or outer side, 2 acyl side, 3 side chain; linkers in the order of their positions; H or OH if unused. Positions of bridges follow the written chain, without caps; N, C: chain ends. Non-standard residues stand in square brackets, D forms with d. Residues, ends and D or L forms follow the SMILES beside them. *: point of attachment. Orn(4R-OH,5R-OCH2CH2NMe3+) = C[N+](C)(C)CCO[C@@H](N[*:3])[C@H](O)C[C@H](N[*:1])C(=O)[*:2]; hTyr(3S-OH,4S-OH,3'-OSO3H) = N[C@H](C(=O)O)[C@H](O)[C@@H](O)c1ccc(O)c(OS(=O)(=O)O)c1; pTerphenylCO(4''-OnC5H11) = CCCCCOc1ccc(-c2ccc(-c3ccc(C(=O)*)cc3)cc2)cc1; Orn(4R-OH,5R-OH) = O=C([C@H](C[C@@H](O)[C@@H](O)N[*:3])N[*:1])[*:2]; hTyr(3S-OH,4S-OH) = N[C@H](C(=O)O)[C@H](O)[C@@H](O)c1ccc(O)cc1; Pro(3S-OH,4S-Me) = C[C@H]1CN[C@H](C(=O)O)[C@H]1O; X1 = CCCCCOc1ccc(-c2cc(-c3ccc(C(=O)*)cc3)no2)cc1; Gln(3R-OH) = NC(=O)C[C@@H](O)[C@H](N)C(=O)O; Hyp = O=C(O)[C@@H]1C[C@@H](O)CN1
# How the values were obtained:
# C. tropicalis = assay: Antifungal susceptibility testing (CLSI M27-S4), WT and echinocandin-resistant isolates; settings: 24 hr
# Protocol: (§1) Antifungal susceptibility testing. Antifungal susceptibility testing was performed in triplicate for a collection of 95 Candida strains (20 C. albicans, 20 C. glabrata, 2 C. dubliniensis, 15 C. krusei, 19 C. parapsilosis, and 19 C. tropicalis) that included 30 isolates showing an echinocandin resistance (ER) phenotype (caspofungin-resistant) in accordance with the guidelines described in the Clinical and Laboratory Standards Institute (CLSI) document M27-S4. […] Stock solutions of the drugs were kept at −86° C.
# Murine protein binding = format: in vitro ADME; settings: mouse, plasma
# C. albicans ATCC 44858 = assay: MIC against C. albicans ATCC 44858 at pH 4; format: cell-based; settings: Candida albicans, ATCC44858, pH 4
# [1] = Modeling of total plasma concentrations versus MPC; settings: IV administration of 50 mg; calculated by modeling of pharmacokinetic data
# [2] = Pharmacokinetic-pharmacodynamic analyses, PK model free-drug plasma exposures; set-up: species or system mouse
# Protocol: Pharmacokinetic-Pharmacodynamic Analyses. Using the data collected from the PK study, a PK model was developed in S-ADAPT. Using the developed PK model, concentration-time profiles and AUC0-168h values were computed for each dosing regimen administered in the dose-fractionation study. […] Relationships between the change in logio CFU from start of therapy and AUC0-168h were explored.
# [3] = molecular target: 1,3-β-D-glucan synthase from C. albicans (Candida albicans, UniProt O13428); assay: Glucan synthase (GS) inhibition assay
# [4] = molecular target: 1,3-β-D-glucan synthase from C. albicans (Candida albicans, UniProt O13428, F641S); assay: Glucan synthase (GS) inhibition assay; settings: IC50, DPL18; Fks1 F641S
# [5] = molecular target: 1,3-β-D-glucan synthase from C. albicans (Candida albicans, UniProt O13428, S645P); assay: Glucan synthase (GS) inhibition assay; settings: IC50, DPL20; Fks1 S645P
# [6] = Solubility of test articles in vehicle, visual observation (Table 22); format: physicochemical; settings: visual observation
# Protocol: Test Articles. […] Amphotericin B and fluconazole were in powder form. Amphotericin B was dissolved in 0.9% NaCl. Fluconazole was dissolved in water (WFI: water for injection).
# [7] = system: Aspergillus fumigatus (ATCC 13073); assay: Neutropenic mouse model of disseminated aspergillosis, survival; format: in vivo; settings: one dose; Compound 1 2 mg/kg IV or IP, AMB 2 mg/kg IP; 10 days; P<0.05
# C. glabrata = assay: Antifungal susceptibility testing (CLSI M27-S4), WT and echinocandin-resistant isolates; settings: for % of ER isolates with an MIC: C. glabrata ER isolates (n=11); for MIC median (range): 24 hr
# Protocol: as §1
# [8] = system: Candida albicans (Strain R303); assay: MIC of dose-fractionation strain
# [9] = Phase 1 dose-escalation trials, pharmacokinetics after IV infusion; format: in vivo, human
# Protocol: PK was assessed using plasma and urine samples collected over 21 days. Safety and tolerability were assessed by adverse events (AEs), vital signs, physical exams, electrocardiograms (ECGs), and safety laboratory values up to 21 days after dosing.
# [10] = system: Candida albicans (Strain R303); assay: Dose-fractionation study in neutropenic ICR mice, kidney fungal burden (Table 24); settings: 2 mg/kg as a single dose IP; 168 hours
# [11] = Pharmacokinetic study in healthy ICR mice, single IP dose; settings: 1 to 16 mg/kg IP
# Protocol: Pharmacokinetic Study. […] The following doses, at three mice per dose, were studied: 1, 4, and 16 mg/kg.
# C. albicans = assay: Mutant prevention concentration (MPC) determination; format: cell-based, Candida albicans; settings: wild-type isolates; 24 hr, ~1×10^7 CFU/mL
# C. krusei = assay: Antifungal susceptibility testing (CLSI M27-S4), WT and echinocandin-resistant isolates; settings: 24 hr
# Protocol: as §1
# C. parapsilosis = assay: Antifungal susceptibility testing (CLSI M27-S4); settings: WT (19 isolates); 24 hr
# Protocol: as §1
# [12] = system: 1,3-β-D-glucan synthase from C. albicans; assay: Glucan synthase (GS) inhibition assay
# [13] = system: C. albicans ATCC 44858, DPL001, R357; assay: Time-kill assay in vagina-simulative medium pH 4.0 (Table 16); format: cell-based, Candida albicans
# [14] = system: C. parapsilosis CP02, CP01, MMX 7370; assay: Time-kill assay in vagina-simulative medium pH 4.0 (Table 19); format: cell-based, Candida parapsilosis
# [15] = system: C. glabrata CG01, ATCC 200918, MMX 7070; assay: Time-kill assay in vagina-simulative medium pH 4.0 (Table 17); format: cell-based, Candida glabrata
# [16] = system: C. tropicalis CTO2, MMX 7255, MMX 7525; assay: Time-kill assay in vagina-simulative medium pH 4.0 (Table 18); format: cell-based, Candida tropicalis
# [17] = IC50, glucan synthase, ATCC 90028, WT
# [18] = glucan synthase, DPL22, Fks1p S645P/S
# [19] = IV infusion, healthy human subjects
# Sequence of 1,3-β-D-glucan synthase from C. albicans (Candida albicans, UniProt O13428, F641S) (O13428 entry or part of it F641S): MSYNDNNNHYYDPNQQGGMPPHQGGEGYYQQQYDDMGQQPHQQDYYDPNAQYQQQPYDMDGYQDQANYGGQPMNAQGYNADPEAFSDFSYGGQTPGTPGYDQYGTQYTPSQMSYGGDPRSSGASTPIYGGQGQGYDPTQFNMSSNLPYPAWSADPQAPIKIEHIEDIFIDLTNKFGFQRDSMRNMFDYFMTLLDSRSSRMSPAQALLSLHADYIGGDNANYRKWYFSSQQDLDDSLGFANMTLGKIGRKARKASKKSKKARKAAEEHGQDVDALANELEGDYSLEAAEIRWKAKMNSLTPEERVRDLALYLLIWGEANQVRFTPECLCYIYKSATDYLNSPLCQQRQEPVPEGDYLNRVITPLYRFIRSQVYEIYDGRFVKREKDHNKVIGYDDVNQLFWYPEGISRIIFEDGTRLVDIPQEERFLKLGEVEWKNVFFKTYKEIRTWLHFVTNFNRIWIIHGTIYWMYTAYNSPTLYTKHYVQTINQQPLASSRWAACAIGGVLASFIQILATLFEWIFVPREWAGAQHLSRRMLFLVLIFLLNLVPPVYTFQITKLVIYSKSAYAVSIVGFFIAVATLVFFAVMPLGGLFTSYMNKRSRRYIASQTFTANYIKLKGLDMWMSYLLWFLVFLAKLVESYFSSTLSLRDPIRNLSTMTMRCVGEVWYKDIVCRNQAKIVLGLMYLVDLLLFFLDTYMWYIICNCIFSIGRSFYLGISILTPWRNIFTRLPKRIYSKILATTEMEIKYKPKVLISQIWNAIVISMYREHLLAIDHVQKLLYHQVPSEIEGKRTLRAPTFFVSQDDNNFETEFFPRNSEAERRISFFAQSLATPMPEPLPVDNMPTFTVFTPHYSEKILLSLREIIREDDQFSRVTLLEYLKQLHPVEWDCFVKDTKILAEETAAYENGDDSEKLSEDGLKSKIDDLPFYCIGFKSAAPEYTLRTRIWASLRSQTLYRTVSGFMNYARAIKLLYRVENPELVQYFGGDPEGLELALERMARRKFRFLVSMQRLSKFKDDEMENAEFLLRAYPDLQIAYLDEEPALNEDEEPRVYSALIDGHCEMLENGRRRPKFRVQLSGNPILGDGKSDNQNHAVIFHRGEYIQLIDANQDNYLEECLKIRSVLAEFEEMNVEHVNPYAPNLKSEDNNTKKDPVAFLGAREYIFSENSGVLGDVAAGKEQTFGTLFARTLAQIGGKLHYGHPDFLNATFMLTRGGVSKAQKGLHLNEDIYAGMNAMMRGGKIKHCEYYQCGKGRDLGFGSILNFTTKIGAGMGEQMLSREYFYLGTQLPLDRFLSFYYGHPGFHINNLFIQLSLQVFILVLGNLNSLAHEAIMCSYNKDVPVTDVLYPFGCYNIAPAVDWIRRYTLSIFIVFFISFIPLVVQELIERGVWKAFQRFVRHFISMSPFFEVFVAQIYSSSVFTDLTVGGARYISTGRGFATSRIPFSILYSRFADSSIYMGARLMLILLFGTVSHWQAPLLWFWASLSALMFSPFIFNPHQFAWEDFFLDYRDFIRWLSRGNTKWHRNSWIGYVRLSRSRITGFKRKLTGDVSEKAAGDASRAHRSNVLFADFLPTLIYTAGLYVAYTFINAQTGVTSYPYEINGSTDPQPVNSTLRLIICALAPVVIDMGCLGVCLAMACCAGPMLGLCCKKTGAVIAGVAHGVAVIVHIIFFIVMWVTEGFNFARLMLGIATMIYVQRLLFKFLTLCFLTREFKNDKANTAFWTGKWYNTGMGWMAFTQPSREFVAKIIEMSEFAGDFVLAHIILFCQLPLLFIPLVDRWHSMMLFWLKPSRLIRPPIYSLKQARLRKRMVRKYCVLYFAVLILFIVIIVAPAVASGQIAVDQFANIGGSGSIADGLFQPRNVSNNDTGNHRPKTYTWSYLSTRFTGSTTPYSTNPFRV
# Sequence of 1,3-β-D-glucan synthase from C. albicans (Candida albicans, UniProt O13428, S645P) (O13428 entry or part of it S645P): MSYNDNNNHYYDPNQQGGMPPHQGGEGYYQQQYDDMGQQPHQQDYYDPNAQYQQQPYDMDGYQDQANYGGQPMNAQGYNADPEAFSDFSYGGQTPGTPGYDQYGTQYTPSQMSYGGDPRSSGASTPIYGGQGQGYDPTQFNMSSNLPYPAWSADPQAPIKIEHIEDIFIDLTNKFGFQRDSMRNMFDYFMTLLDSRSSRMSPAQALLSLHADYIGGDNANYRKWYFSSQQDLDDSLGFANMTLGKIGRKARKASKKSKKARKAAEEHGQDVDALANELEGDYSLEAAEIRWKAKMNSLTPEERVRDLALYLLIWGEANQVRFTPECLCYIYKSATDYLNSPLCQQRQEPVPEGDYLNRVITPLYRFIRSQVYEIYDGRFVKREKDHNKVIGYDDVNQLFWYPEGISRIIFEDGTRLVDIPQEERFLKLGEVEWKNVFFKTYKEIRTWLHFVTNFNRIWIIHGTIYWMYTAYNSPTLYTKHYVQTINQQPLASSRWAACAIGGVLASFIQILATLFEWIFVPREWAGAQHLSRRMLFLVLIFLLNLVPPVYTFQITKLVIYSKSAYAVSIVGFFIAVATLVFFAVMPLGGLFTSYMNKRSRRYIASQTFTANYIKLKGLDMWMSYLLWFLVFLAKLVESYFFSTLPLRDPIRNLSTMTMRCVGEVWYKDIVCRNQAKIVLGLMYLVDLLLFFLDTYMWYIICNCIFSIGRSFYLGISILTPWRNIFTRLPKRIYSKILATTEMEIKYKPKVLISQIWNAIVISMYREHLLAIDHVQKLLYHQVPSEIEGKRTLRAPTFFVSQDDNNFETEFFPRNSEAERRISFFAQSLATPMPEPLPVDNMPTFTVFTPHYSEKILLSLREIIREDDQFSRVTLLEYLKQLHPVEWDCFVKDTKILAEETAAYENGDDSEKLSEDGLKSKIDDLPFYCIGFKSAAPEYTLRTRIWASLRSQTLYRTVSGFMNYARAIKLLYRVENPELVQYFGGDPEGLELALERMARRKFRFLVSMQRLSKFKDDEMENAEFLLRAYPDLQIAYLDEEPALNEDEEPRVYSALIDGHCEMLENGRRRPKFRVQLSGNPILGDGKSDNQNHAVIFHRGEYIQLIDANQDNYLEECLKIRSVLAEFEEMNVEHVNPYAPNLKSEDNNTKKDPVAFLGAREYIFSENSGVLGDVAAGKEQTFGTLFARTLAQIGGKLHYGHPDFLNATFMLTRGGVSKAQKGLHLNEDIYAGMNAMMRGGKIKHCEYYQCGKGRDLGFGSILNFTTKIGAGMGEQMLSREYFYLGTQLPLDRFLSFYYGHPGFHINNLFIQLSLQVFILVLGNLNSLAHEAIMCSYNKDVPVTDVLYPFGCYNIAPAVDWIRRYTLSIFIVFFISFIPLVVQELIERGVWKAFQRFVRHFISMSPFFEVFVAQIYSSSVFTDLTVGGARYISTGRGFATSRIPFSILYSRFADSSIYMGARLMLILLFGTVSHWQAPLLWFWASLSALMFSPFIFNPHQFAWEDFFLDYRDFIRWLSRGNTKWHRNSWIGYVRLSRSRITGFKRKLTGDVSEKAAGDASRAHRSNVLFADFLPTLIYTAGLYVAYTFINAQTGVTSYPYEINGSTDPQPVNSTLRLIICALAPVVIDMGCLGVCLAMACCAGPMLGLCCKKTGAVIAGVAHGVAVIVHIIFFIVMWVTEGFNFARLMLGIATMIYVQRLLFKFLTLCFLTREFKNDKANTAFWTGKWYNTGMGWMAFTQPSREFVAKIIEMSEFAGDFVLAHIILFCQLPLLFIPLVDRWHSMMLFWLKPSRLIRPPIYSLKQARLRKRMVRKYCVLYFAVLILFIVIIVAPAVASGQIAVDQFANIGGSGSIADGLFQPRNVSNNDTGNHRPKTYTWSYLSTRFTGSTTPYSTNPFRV
smiles,measurement,setting,value
"CCCCCOc1ccc(-c2ccc(-c3ccc(C(=O)N[C@H]4C[C@@H](O)[C@@H](OCC[N+](C)(C)C)NC(=O)[C@@H]5[C@@H](O)[C@@H](C)CN5C(=O)[C@H]([C@@H](C)O)NC(=O)[C@H]([C@H](O)[C@@H](O)c5ccc(O)cc5)NC(=O)[C@@H]5C[C@@H](O)CN5C(=O)[C@H]([C@@H](C)O)NC4=O)cc3)cc2)cc1 [Compound 1] ({pTerphenylCO(4''-OnC5H11)}-[Orn(4R-OH,5R-OCH2CH2NMe3+)]T[Hyp][hTyr(3S-OH,4S-OH)]T[Pro(3S-OH,4S-Me)]; lactam 1-C)",MIC median (range),C. tropicalis; ER (4 isolates),2.00 (0.5-2) mg/L
same,MIC median (range),C. tropicalis; WT (15 isolates),0.03 (0.03)^ mg/L
same,fraction unbound,Murine protein binding,0.009
same,MIC,C. albicans ATCC 44858,0.25 µg/mL
same,total plasma concentration generated,[1],> 16 µg/mL
same,Free-drug plasma AUC0-24,[2]; 2 mg/kg as a single dose,65.4 ng·h/mL
same,time free-drug plasma concentrations of single dose remain above those of the daily regimen,[2]; 2 mg/kg total dose,48 h
same,time free-drug plasma concentrations of single dose remain above those of the twice weekly regimen,[2]; 2 mg/kg total dose,84 h
same,Free-drug plasma AUC0-24,"[2]; 2 mg/kg total, daily regimen",9.48 ng·h/mL
same,Free-drug plasma AUC0-24,"[2]; 2 mg/kg total, twice weekly regimen",30.3 ng·h/mL
same,IC50,"[3]; IC50, DPL1002, WT",11.6 nM
same,IC50,[3]; [17],11.4 nM
same,IC50,[3]; [18],24.5 nM
same,IC50,[4],283 nM
same,IC50,[5],2150 nM
same,Solubility,"[6]; vehicle 10% DMSO/1% Tween 20 in 0.9% NaCl, formulation 0.3, 1 and 3 mg/mL",S
same,survival versus vehicle,[7],significantly longer survival than vehicle
same,% of ER isolates with an MIC,C. glabrata,18%
same,MIC median (range),C. glabrata; ER (11 isolates),1.00 (0.12-4) mg/L
same,MIC median (range),C. glabrata; WT (9 isolates),0.06 (0.03-0.12) mg/L
same,MIC,[8],0.125 µg/mL
same,plasma exposures versus dose,[9]; 50-400 mg IV,dose-proportional plasma exposures
same,apparent clearance,[9]; [19],< 0.3 L/h
same,urinary excretion,[9]; [19],< 1%
same,half-life,"[9]; plasma, IV infusion, healthy human subjects, read-out: half-life (t1/2)",> 80 h
same,log10 CFU reduction from baseline,[10],greater than 2 log10 CFU
same,PK linearity over the dose range,[11],linear PK
same,MPC,C. albicans,16 µg/mL
same,MIC median (range),C. krusei; ER (4 isolates),0.50 (<0.03-4) mg/L
same,MIC median (range),C. krusei; WT (11 isolates),0.03 (<0.03-0.06) mg/L
same,MIC median (range),C. parapsilosis,2 (2-4) mg/L
"CCCCCOc1ccc(-c2cc(-c3ccc(C(=O)N[C@H]4C[C@@H](O)[C@@H](O)NC(=O)[C@@H]5[C@@H](O)[C@@H](C)CN5C(=O)[C@H]([C@H](O)CC(N)=O)NC(=O)[C@H]([C@H](O)[C@@H](O)c5ccc(O)c(OS(=O)(=O)O)c5)NC(=O)[C@@H]5C[C@@H](O)CN5C(=O)[C@H]([C@@H](C)O)NC4=O)cc3)no2)cc1 [MCF, micafungin] (X1-[Orn(4R-OH,5R-OH)]T[Hyp][hTyr(3S-OH,4S-OH,3'-OSO3H)][Gln(3R-OH)][Pro(3S-OH,4S-Me)]; lactam 1-C)",MIC median (range),C. tropicalis; ER (4 isolates),2.00 (1-4) mg/L
same,MIC median (range),C. tropicalis; WT (15 isolates),0.03 (0.03)^ mg/L
same,IC50,"[3]; IC50, DPL1002, WT",13.9 nM
same,IC50,[3]; [17],14.2 nM
same,IC50,[3]; [18],193 nM
same,IC50,[4],1400 nM
same,IC50,[5],2010 nM
same,fold increase in IC50 compared to the WT,[12]; F641S mutant,100 fold
same,fold increase in IC50 compared to the WT,[12]; S645P mutant,144 fold
same,% of ER isolates with an MIC,C. glabrata,63%
same,MIC median (range),C. glabrata; ER (11 isolates),0.50 (0.06-4) mg/L
same,MIC median (range),C. glabrata; WT (9 isolates),<0.03 (<0.03)^ mg/L
same,MPC,C. albicans,16 µg/mL
same,MIC median (range),C. krusei; ER (4 isolates),1.00 (0.03-8) mg/L
same,MIC median (range),C. krusei; WT (11 isolates),0.12 (0.03-0.25) mg/L
same,MIC median (range),C. parapsilosis,4 (1-4) mg/L
"OC(Cn1cncn1)(Cn1cncn1)c1ccc(F)cc1F [FLU, fluconazole]",Susceptibility to FLU (S/R),[13]; C. albicans ATCC 44858,S
same,Susceptibility to FLU (S/R),[13]; C. albicans DPL001,R
same,Susceptibility to FLU (S/R),[13]; C. albicans R357,R
same,Solubility,"[6]; vehicle WFI, formulation 2 mg/mL",S
same,Susceptibility to FLU (S/R),[14]; C. parapsilosis CP01,R
same,Susceptibility to FLU (S/R),[14]; C. parapsilosis CP02,S
same,Susceptibility to FLU (S/R),[14]; C. parapsilosis MMX 7370,R
same,Susceptibility to FLU (S/R),[15]; C. glabrata ATCC 200918,R
same,Susceptibility to FLU (S/R),[15]; C. glabrata CG01,S
same,Susceptibility to FLU (S/R),[15]; C. glabrata MMX 7070,R
same,Susceptibility to FLU (S/R),[16]; C. tropicalis CT02,S
same,Susceptibility to FLU (S/R),[16]; C. tropicalis MMX 7255,R
same,Susceptibility to FLU (S/R),[16]; C. tropicalis MMX 7525,R
